Measured values as given in patent publication US20230181746A1, “BENZOYLHYDRAZIDE-DERIVED HDAC DEGRADERS AS THERAPEUTICS FOR TREATING CANCER AND OTHER HUMAN DISEASES” (University of Florida Research Foundation, Inc., priority 2020, published 2023).

How the values were obtained:
[1] = tested on: breast cancer cell lines MCF7, T47D, MDA-MB-468, HCC-1143 and BT479; experiment: Clonogenic growth assay, breast cancer cell lines; type: cell-based; conditions: compared with XZ9002-NC
Description: FIGS. 8A-8B show the cellular activity of XZ9002. […] Cells were lysed for WB. The relative HDAC3 protein level in each sample is shown. […] The indicated BC cell lines were exposed to DMSO, XZ9002, or XZ9002-NC at the indicated concentrations. Colonies were fixed and stained.
Cell lines were obtained from ATCC and subsequently authenticated. Cells were cultured with DMEM supplemented with 10% bovine calf serum, penicillin to 10 units/mL, and streptomycin to 10 μg/mL. For viability assays, 5,000 cells/well were seeded in 96-well plates. Compounds at a specified concentration or DMSO were added 24 h later. Viability assays were performed 72 h after compound addition using the CellTiter-Glo reagents (Promega). For colony formation assay, cells (˜1,000 cells/well) were seeded in a 24-well plate in quadruplicates. At 24 h after seeding, DMSO, XZ9002, or XZ9002-NC were added at a specified concentration. Medium was replaced with freshly prepared medium containing DMSO, XZ9002 or XZ9002-NC every five days until visible colonies appeared, typically in 15 to 20 days after initial cell seeding. Cells were fixed with 4% paraformaldehyde for 15 min and stained with 2% methylene blue in 20% ethanol for 30 min to 1 h. The cells were washed twice with distilled water and dried in air. For western blotting, cell cultures were exposed to compounds as indicated in relevant figures. […]

[2] = tested on: histone acetylation (H3K27ac, H4K5ac, acetyl-lysine); experiment: Histone acetylation in cells, Western blot; type: cell-based; conditions: MDA-MB-468 cells; only moderate effects compared to 15 and CRBN-based PROTACs
Description: The culture of the triple-negative breast cancer cell line MDA-MB-468 and the ER+ breast cancer cell line T47D was exposed to vehicle control (DMSO) and the indicated compounds at specified concentrations for 14 h. Cells were lysed for WB with antibodies against the indicated proteins. Antibodies against acetylated histones at specific sites (H3K27 and H4K5) and acetyl-lysine were used to assess levels of histone acetylation. Levels of HDAC3 were normalized against that of tubulin and % of HDAC3 protein levels in cells treated with the indicated compounds relative to that in DMSO control is shown.
Cell lines were obtained from ATCC and subsequently authenticated. Cells were cultured with DMEM supplemented with 10% bovine calf serum, penicillin to 10 units/mL, and streptomycin to 10 μg/mL. For viability assays, 5,000 cells/well were seeded in 96-well plates. Compounds at a specified concentration or DMSO were added 24 h later. Viability assays were performed 72 h after compound addition using the CellTiter-Glo reagents (Promega). For colony formation assay, cells (˜1,000 cells/well) were seeded in a 24-well plate in quadruplicates. At 24 h after seeding, DMSO, XZ9002, or XZ9002-NC were added at a specified concentration. […]

[3] = target: T1, HDAC3 (in complex with the deacetylase activation domain of the human NCOR2 (amino acids 395-498)) (Homo sapiens, UniProt O15379); experiment: In vitro HDAC activity assay (HDAC-Glo I/II), HDAC3; type: biochemical; conditions: HDAC-Glo I/II; average of three independent assays ± standard deviation
T1 construct: purchased BPS Bioscience 50003
T1 sequence (O15379 whole entry, the tested form may be a part): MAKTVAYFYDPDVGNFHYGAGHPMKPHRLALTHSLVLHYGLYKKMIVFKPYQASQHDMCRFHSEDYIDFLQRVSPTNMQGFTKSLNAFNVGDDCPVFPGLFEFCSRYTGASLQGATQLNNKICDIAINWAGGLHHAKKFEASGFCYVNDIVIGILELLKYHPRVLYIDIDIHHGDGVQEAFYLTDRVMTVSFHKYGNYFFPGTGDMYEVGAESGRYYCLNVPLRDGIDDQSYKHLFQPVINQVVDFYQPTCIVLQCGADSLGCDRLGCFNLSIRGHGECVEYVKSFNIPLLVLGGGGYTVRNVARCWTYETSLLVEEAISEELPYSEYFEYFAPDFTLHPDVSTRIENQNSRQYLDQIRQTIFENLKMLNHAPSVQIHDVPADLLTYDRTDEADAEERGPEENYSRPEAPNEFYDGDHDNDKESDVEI
T1 sequence (Q9Y618 395-498 partner limits assumed): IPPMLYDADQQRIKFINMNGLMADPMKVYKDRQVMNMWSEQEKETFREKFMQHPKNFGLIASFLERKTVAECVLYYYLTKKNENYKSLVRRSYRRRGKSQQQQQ
Description: Purified HDAC1, HDAC2, and HDAC3 (in complex with the deacetylase activation domain of the human NCOR2 (amino acids 395-498)) were obtained from Enzo Life Sciences (HDAC1, catalog # BML-SE456-0050) and BPS Bioscience (HDAC2, catalog #50002 and HDAC3, catalog #50003), respectively. The enzyme activities were tested using the HDAC-Glo I/II reagents (Promega) according to a protocol provided by the manufacturer.

[4] = target: HDAC3 (Homo sapiens, UniProt O15379); experiment: HDAC3 degradation in breast cancer cell lines, Western blot; type: cell-based; design: endogenous in cells; host or cells: MDA-MB-468, T47D, MCF7; conditions: MDA-MB-468 cells
Chain of HDAC3 (O15379 whole entry): as the sequence (O15379 whole entry, the tested form may be a part) above
Chain of HDAC3 (Q9Y618 395-498 partner limits assumed): as the sequence (Q9Y618 395-498 partner limits assumed) above
From the text: Data are presented as representative figures of two independent experiments.
Cells were lysed for WB with antibodies against the indicated proteins. Antibodies against acetylated histones at specific sites (H3K27 and H4K5) and acetyl-lysine were used to assess levels of histone acetylation.
Cells were lysed for WB. […] The indicated BC cell lines were exposed to DMSO, XZ9002, or XZ9002-NC at the indicated concentrations. Colonies were fixed and stained.
Cell lines were obtained from ATCC and subsequently authenticated. Cells were cultured with DMEM supplemented with 10% bovine calf serum, penicillin to 10 units/mL, and streptomycin to 10 μg/mL. For viability assays, 5,000 cells/well were seeded in 96-well plates. […] For colony formation assay, cells (˜1,000 cells/well) were seeded in a 24-well plate in quadruplicates. […] Medium was replaced with freshly prepared medium containing DMSO, XZ9002 or XZ9002-NC every five days until visible colonies appeared, typically in 15 to 20 days after initial cell seeding. Cells were fixed with 4% paraformaldehyde for 15 min and stained with 2% methylene blue in 20% ethanol for 30 min to 1 h. The cells were washed twice with distilled water and dried in air. For western blotting, cell cultures were exposed to compounds as indicated in relevant figures. Medium was removed from culture plate, and 1 x passive lysis buffer was then added, the plates were frozen at −80° C. overnight and thawed at room temperature. The total cell lysates were mixed with a one fifth volume of 6x SDS sample buffer, heated at 95° C. for 5 min and cooled on ice. The lysates were cleared by centrifugation and then subjected to SDS-PAGE and western blotting essentially as described.

IC50 [3]: 350 ± 70 nM
start of HDAC3 degradation ([4]; 125 nM): ≤ 2 h
time for HDAC3 to rebound to the steady level after washout ([4]; 125 nM for 14 h, then drug-free medium): more than 12 h
HDAC3 degraded ([4]; 125 nM, 8 h): 70%
DC50 ([4]; 14 h treatment, read-out: HDAC3 DC50 (the concentration for 50% protein degradation)): 42 nM
HDAC3 degradation after pre-incubation with proteasome inhibitor MG132 ([4]; MG132 1 μM for 1 h, XZ9002 125 nM): blocked
HDAC3 degradation after pre-incubation with VHL ligand VH032 ([4]; VH032 10 μM for 1 h, XZ9002 125 nM): blocked
SMILES: CCCNNC(=O)c1ccc(-c2ccc(NC(=O)CCCCCCC(=O)N[C@H](C(=O)N3C[C@H](O)C[C@H]3C(=O)N[C@@H](C)c3ccc(-c4scnc4C)cc3)C(C)(C)C)cc2)cc1 [XZ9002, N^1—((S)-1-((2S,4R)-4-hydroxy-2-(((S)-1-(4-(4-methylthiazol-5-yl)phenyl)ethyl)carbamoyl)pyrrolidin-1-yl)-3,3-dimethyl-1-oxobutan-2-yl)-N^5-(4′-(2-propylhydrazine-1-carbonyl)-[1,1′-biphenyl]-4-yl)octanediamide]
suppression of colony formation [1]: more potent to suppress colony formation
histone acetylation [2]: dose-dependently increased
